Legend:
Settings in all cases: incubation time: 72 h
Hs578T [1] = assay: normalised response (% of control), CellTiter-Glo; higher = more viable cells (100 = DMSO, 0 = benzethonium chloride kill control)
Description: (§1)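 DSRT, 72 h incubation, CellTox Green / CellTiter-Glo readout. Signal is normalised to DMSO and benzethonium chloride controls. Value is the normalised response at the highest dose.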

CAL-85-1 [2] = assay: as above
Description: as §1

HCC1937 [3] = assay: as above
Description: as §1

MCF-10A [4] = assay: as above
Description: as §1

HDQ-P1 [5] = assay: as above
Description: as §1

CAL-51 [6] = assay: as above
Description: as §1

SK-BR-3 = assay: as above
Description: as §1

BT-549 [7] = assay: as above
Description: as §1

MDA-MB-231 [8] = assay: as above
Description: as §1

MDA-MB-453 [9] = assay: as above
Description: as §1

BT-474 [10] = assay: as above
Description: as §1

CAL-120 [11] = assay: as above
Description: as §1

MFM-223 [12] = assay: as above
Description: as §1

DU-4475 [13] = assay: as above
Description: as §1

HCC1143 [14] = assay: as above
Description: as §1

HCC1599 [15] = assay: as above
Description: as §1

MDA-MB-468 [16] = assay: as above
Description: as §1

CAL-148 [17] = assay: as above
Description: as §1

MDA-MB-436 [18] = assay: as above
Description: as §1

Hs578T [19] = assay: normalised response (% of control), CellTox Green; higher = less cell death (100 = DMSO, 0 = benzethonium chloride kill control)
Summary of the method: (§2)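 CellTox Green fluorescence (485/520 nm) and, after 10 min at room temperature, CellTiter-Glo luminescence were read from breast cancer cell lines incubated 72 h in 384-well plates. Cells were seeded as 20 µl suspension onto compound at 5 concentrations in 10-fold steps over a 10,000-fold range chosen per compound. Each plate was normalised to 0.1 % DMSO (100) and a positive kill control (0). Values are normalised signals, one per concentration.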

CAL-85-1 [20] = assay: as above
Summary of the method: as §2

HCC1937 [21] = assay: as above
Summary of the method: as §2

MCF-10A [22] = assay: as above
Summary of the method: as §2

HDQ-P1 [23] = assay: as above
Summary of the method: as §2

CAL-51 [24] = assay: as above
Summary of the method: as §2

BT-549 [25] = assay: as above
Summary of the method: as §2

MDA-MB-231 [26] = assay: as above
Summary of the method: as §2

MDA-MB-453 [27] = assay: as above
Summary of the method: as §2

BT-474 [28] = assay: as above
Summary of the method: as §2

CAL-120 [29] = assay: as above
Summary of the method: as §2

MFM-223 [30] = assay: as above
Summary of the method: as §2

DU-4475 [31] = assay: as above
Summary of the method: as §2

HCC1143 [32] = assay: as above
Summary of the method: as §2

HCC1599 [33] = assay: as above
Summary of the method: as §2

MDA-MB-468 [34] = assay: as above
Summary of the method: as §2

CAL-148 [35] = assay: as above
Summary of the method: as §2

MDA-MB-436 [36] = assay: as above
Summary of the method: as §2

CC(C)n1nc(-c2ccc3oc(N)nc3c2)c2c(N)ncnc21 [INK128] (1000 nM)
normalised response (Hs578T [1]): 24.5%
normalised response (CAL-85-1 [2]): 24.2%
normalised response (HCC1937 [3]): 37%
normalised response (MCF-10A [4]): 25.1%
normalised response (HDQ-P1 [5]): 29.6%
normalised response (CAL-51 [6]): 20.9%
normalised response (SK-BR-3): 17.4%
normalised response (BT-549 [7]): 19.5%
normalised response (MDA-MB-231 [8]): 33.9%
normalised response (MDA-MB-453 [9]): 30%
normalised response (BT-474 [10]): 41.1%
normalised response (CAL-120 [11]): 18.5%
normalised response (MFM-223 [12]): 26.5%
normalised response (DU-4475 [13]): 18.4%
normalised response (HCC1143 [14]): 22.1%
normalised response (HCC1599 [15]): 79.2%
normalised response (MDA-MB-468 [16]): 18.7%
normalised response (CAL-148 [17]): 16.1%
normalised response (MDA-MB-436 [18]): 45.8%
normalised response (Hs578T [19]): -29.1%
normalised response (CAL-85-1 [20]): 115%
normalised response (HCC1937 [21]): 103%
normalised response (MCF-10A [22]): 92%
normalised response (HDQ-P1 [23]): 98.4%
normalised response (CAL-51 [24]): 85.2%
normalised response (BT-549 [25]): 93.2%
normalised response (MDA-MB-231 [26]): 87.6%
normalised response (MDA-MB-453 [27]): 97.1%
normalised response (BT-474 [28]): 93.8%
normalised response (CAL-120 [29]): 97.3%
normalised response (MFM-223 [30]): 28.3%
normalised response (DU-4475 [31]): 86.9%
normalised response (HCC1143 [32]): 113%
normalised response (HCC1599 [33]): 99.4%
normalised response (MDA-MB-468 [34]): 153%
normalised response (CAL-148 [35]): 42%
normalised response (MDA-MB-436 [36]): 91.4%

Source: the supplement of paper PMC4862054
